Patent publication US4598084A, “Optically active derivatives of N-arylated oxazolidine-2-one, the process for preparing same and their application in therapeutics” (Delalande S.A., priority 1982, dated 1986)
Read-outs that look alike come from different tables or passages of the source.

How the values were obtained:
[1] = target: T1, type A monoamine oxidase (MAO.A) (Rattus norvegicus, UniProt P21396); experiment: in vitro MAO.A inhibition on homogenized rat brain, serotonine (5-HT) substrate; format: biochemical, rats; conditions: Table 1, rat brain homogenate, read-out: MAO.A inhibition effect (5-HT) IC 50
T1 construct: the brains being removed, weighed, homogeneized; from tissue; host or cells: brain of orally dosed rats, homogenized
T1 sequence (P21396 1-526): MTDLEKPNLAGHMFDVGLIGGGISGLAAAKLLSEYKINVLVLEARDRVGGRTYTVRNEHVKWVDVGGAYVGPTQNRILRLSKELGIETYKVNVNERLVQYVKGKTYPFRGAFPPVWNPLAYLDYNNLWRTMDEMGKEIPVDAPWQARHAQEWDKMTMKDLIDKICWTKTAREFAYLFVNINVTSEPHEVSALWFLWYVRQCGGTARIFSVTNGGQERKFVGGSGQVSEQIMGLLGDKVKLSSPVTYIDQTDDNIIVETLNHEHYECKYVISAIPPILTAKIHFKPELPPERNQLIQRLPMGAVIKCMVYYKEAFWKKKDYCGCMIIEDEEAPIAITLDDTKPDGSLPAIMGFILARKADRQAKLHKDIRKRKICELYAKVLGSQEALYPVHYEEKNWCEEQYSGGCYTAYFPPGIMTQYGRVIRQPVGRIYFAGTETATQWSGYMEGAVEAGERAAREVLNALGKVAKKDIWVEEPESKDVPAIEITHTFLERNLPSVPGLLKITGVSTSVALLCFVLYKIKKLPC
Description: (§1) in vitro, on the homogeneized brain of rats, by measuring the dose inhibiting by 50% (IC 50) the activity of monoamine oxidase (MAO) by taking phenylethylamine (PEA) as substrate of type B monoamine oxidase (MAO.B) and serotonine (5-HT) as substrate of type A monoamine oxidase (MAO.A), according to the procedure described by M. STROLIN BENEDETTI et al. in: Monoamine oxidase Basic and Clinical Frontiers, publishers K. KAMISO-E. USDIN-T. NAGATSO-Excepta Medica (1982)-page 209);

[2] = target: T2, type B monoamine oxidase (MAO.B) (Rattus norvegicus, UniProt P19643); experiment: ex vivo brain MAO.B inhibition after single oral dose in rats, PEA substrate; conditions: for inhibition at 5 mg/kg / inhibition at 10 mg/kg / inhibition at 20 mg/kg: rat, po; for inhibition at 5 mg/kg: 5 mg/kg p.o.; for specificity and reversibility / level of activity: in words; for specificity and reversibility: compared with racemic; for level of activity: compared with racemic or dose; for inhibition at 10 mg/kg: 10 mg/kg p.o.; for inhibition at 20 mg/kg: 20 mg/kg p.o.
T2 construct: the brains being removed, weighed, homogeneized; from tissue; host or cells: brain of orally dosed rats, homogenized
T2 sequence (P19643 1-520): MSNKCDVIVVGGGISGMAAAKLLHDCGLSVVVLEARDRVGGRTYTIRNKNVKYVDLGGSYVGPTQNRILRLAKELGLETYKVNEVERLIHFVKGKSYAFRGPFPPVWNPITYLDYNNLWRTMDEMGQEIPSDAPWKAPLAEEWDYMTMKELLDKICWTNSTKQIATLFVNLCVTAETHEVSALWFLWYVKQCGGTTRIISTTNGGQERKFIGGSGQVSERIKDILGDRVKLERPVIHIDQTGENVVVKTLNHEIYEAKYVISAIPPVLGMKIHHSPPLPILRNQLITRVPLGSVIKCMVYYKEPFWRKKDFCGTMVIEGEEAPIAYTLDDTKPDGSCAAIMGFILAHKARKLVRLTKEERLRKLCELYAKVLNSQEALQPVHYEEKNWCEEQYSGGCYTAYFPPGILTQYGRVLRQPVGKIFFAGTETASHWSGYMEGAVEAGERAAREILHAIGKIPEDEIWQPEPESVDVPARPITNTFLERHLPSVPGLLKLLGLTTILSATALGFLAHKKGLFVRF
Procedure: (§2) ex vivo, on rats to which was administered orally a single dose of the compounds of formula (I) (or their pharmaceutically acceptable salts) or their corresponding racemic of formula (Io), in a 0.5% suspension in methylcellulose, the rats being sacrificed by being beheaded at varying times, the brains being removed, weighed, homogeneized and the determination of the MAOI activity being made by using serotonine and phenylethylamine, according to the procedure described by J. P. KAN and M. STROLIN-BENEDETTI in Life Sciences 26, 2165, (1980).

[3] = target: T1, type A monoamine oxidase (MAO.A); experiment: ex vivo brain MAO.A inhibition after single oral dose in rats, 5-HT substrate; conditions: for inhibition at 10 mg/kg: Table 3, 10 mg/kg p.o.; for inhibition at 20 mg/kg: Table 3, 20 mg/kg p.o.
Procedure: as §2

[4] = oral acute toxicity in mice (Miller and Tainter's method); format: in vivo; conditions: mouse, in vivo, mice, oral, read-out: Acute toxicity (mice) LD 50
Description: (§3) The results obtained in the in vitro test are shown in table 1 below and the results obtained in the ex vivo test, as well as the oral acute toxicity in mice evaluated according to MILLER and TAINTER's method [Proc. Soc.

[5] = target: T2, type B monoamine oxidase (MAO.B); experiment: in vitro MAO.B inhibition on homogenized rat brain, phenylethylamine (PEA) substrate; format: biochemical, rats; conditions: Table 1, rat brain homogenate, read-out: MAO.B inhibition effect (P.E.A.) IC 50
Description: as §1

mice = experiment: oral acute toxicity in mice (Miller and Tainter's method); format: in vivo; conditions: in words
Description: as §3

[6] = Table 3, rats, 30, unit inferred, read-out: % MAO inhibition effect after n hour(s), PEA
[7] = Table 3, rats, 1 hour, read-out: % MAO inhibition effect after n hour(s), PEA
[8] = Table 3, rats, 2 hours, read-out: % MAO inhibition effect after n hour(s), PEA
[9] = Table 3, rats, 4 hours, read-out: % MAO inhibition effect after n hour(s), PEA
[10] = Table 3, rats, 8 hours, read-out: % MAO inhibition effect after n hour(s), PEA
[11] = Table 3, rats, 24 hours, read-out: % MAO inhibition effect after n hour(s), PEA
[12] = Table 3, 5 mg/kg p.o., rats, 30, unit inferred, read-out: % MAO inhibition effect after n hour(s), 5-HT
[13] = Table 3, 5 mg/kg p.o., rats, 1 hour, read-out: % MAO inhibition effect after n hour(s), 5-HT
[14] = Table 3, 5 mg/kg p.o., rats, 2 hours, read-out: % MAO inhibition effect after n hour(s), 5-HT
[15] = Table 3, 5 mg/kg p.o., rats, 4 hours, read-out: % MAO inhibition effect after n hour(s), 5-HT
[16] = Table 3, 5 mg/kg p.o., rats, 8 hours, read-out: % MAO inhibition effect after n hour(s), 5-HT
[17] = Table 3, 5 mg/kg p.o., rats, 24 hours, read-out: % MAO inhibition effect after n hour(s), 5-HT
[18] = Table 2, rats, 1 hour, read-out: % MAO inhibition effect after n hour(s), PEA (IMAO.B)
[19] = Table 2, rats, 2 hours, read-out: % MAO inhibition effect after n hour(s), PEA (IMAO.B)
[20] = Table 2, rats, 4 hours, read-out: % MAO inhibition effect after n hour(s), PEA (IMAO.B)
[21] = Table 2, rats, 8 hours, read-out: % MAO inhibition effect after n hour(s), PEA (IMAO.B)
[22] = Table 2, rats, 24 hours, read-out: % MAO inhibition effect after n hour(s), PEA (IMAO.B)
[23] = Table 2, rats, 48 hours, read-out: % MAO inhibition effect after n hour(s), PEA (IMAO.B)
[24] = Table 2, rats, 72 hours, read-out: % MAO inhibition effect after n hour(s), PEA (IMAO.B)
[25] = Table 2, 5 mg/kg p.o., rats, 1 hour, read-out: % MAO inhibition effect after n hour(s), 5-HT (IMAO.A)
[26] = Table 2, 5 mg/kg p.o., rats, 2 hours, read-out: % MAO inhibition effect after n hour(s), 5-HT (IMAO.A)
[27] = Table 2, 5 mg/kg p.o., rats, 4 hours, read-out: % MAO inhibition effect after n hour(s), 5-HT (IMAO.A)
[28] = Table 2, 5 mg/kg p.o., rats, 8 hours, read-out: % MAO inhibition effect after n hour(s), 5-HT (IMAO.A)
[29] = Table 2, 5 mg/kg p.o., rats, 24 hours, read-out: % MAO inhibition effect after n hour(s), 5-HT (IMAO.A)
[30] = Table 2, 5 mg/kg p.o., rats, 48 hours, read-out: % MAO inhibition effect after n hour(s), 5-HT (IMAO.A)
[31] = Table 2, 5 mg/kg p.o., rats, 72 hours, read-out: % MAO inhibition effect after n hour(s), 5-HT (IMAO.A)
[32] = rats, 2 hours, read-out: % MAO inhibition effect after n hour(s), 5-HT
[33] = rats, 8 hours, read-out: % MAO inhibition effect after n hour(s), 5-HT
[34] = rats, 24 hours, read-out: % MAO inhibition effect after n hour(s), 5-HT

| Compound | IC50 [1] | inhibition at 5 mg/kg [2, 6] | inhibition at 5 mg/kg [2, 7] | inhibition at 5 mg/kg [2, 8] | inhibition at 5 mg/kg [2, 9] | inhibition at 5 mg/kg [2, 10] | inhibition at 5 mg/kg [2, 11] | inhibition at 5 mg/kg [3, 12] | inhibition at 5 mg/kg [3, 13] | inhibition at 5 mg/kg [3, 14] | inhibition at 5 mg/kg [3, 15] | inhibition at 5 mg/kg [3, 16] | inhibition at 5 mg/kg [3, 17] | LD50 ([4]; Table 3) | IC50 [5] | inhibition at 5 mg/kg [2, 18] | inhibition at 5 mg/kg [2, 19] | inhibition at 5 mg/kg [2, 20] | inhibition at 5 mg/kg [2, 21] | inhibition at 5 mg/kg [2, 22] | also measured |
| --- | --- | --- | --- | --- | --- | --- | --- | --- | --- | --- | --- | --- | --- | --- | --- | --- | --- | --- | --- | --- | --- |
| O=C1OC(CO)CN1c1ccc(OCc2cccc(Cl)c2)cc1 (racemic) [Racemic of (Ia), reference compound] | 0.6 µM | 79% | 78% | 79% | 68% | 47% | 1% | 21% | 18% | 20% | 9% | 0% | 2% | > 1000 mg/kg | 20 nM | – | – | – | – | – | – |
| CNCC1CN(c2ccc(OCc3cccc(Cl)c3)cc2)C(=O)O1 (racemic) [Racemic of (Ib), reference compound] | 14 µM | – | – | – | – | – | – | – | – | – | – | – | – | – | 34 nM | 84% | 85% | 78% | 67% | 31% | inhibition at 5 mg/kg [2, 23]: 29%; inhibition at 5 mg/kg [2, 24]: 21%; inhibition at 5 mg/kg [3, 25]: 7%; inhibition at 5 mg/kg [3, 26]: 8%; inhibition at 5 mg/kg [3, 27]: 10%; inhibition at 5 mg/kg [3, 28]: 8%; inhibition at 5 mg/kg [3, 29]: 1%; inhibition at 5 mg/kg [3, 30]: 1%; inhibition at 5 mg/kg [3, 31]: 1%; LD50 ([4]; Table 2): > 1000 mg/kg |
| O=C1O[C@H](CO)CN1c1ccc(OCc2cccc(Cl)c2)cc1 [(Ia), [S(+)] 5-hydroxymethyl 3-p-(meta-chlorobenzyloxy)phenyl oxazolidine-2-one] | 9 µM | 47% | 47% | 43% | 30% | 5% | -5% | 3% | 3% | 2% | 3% | 0% | -2% | > 1000 mg/kg | 85 nM | – | – | – | – | – | specificity and reversibility [2]: much greater specificity; level of activity [2]: activity increases with the dose administered; inhibition at 10 mg/kg [2, 8]: 66%; inhibition at 10 mg/kg [2, 10]: 36%; inhibition at 10 mg/kg [2, 11]: 6%; inhibition at 20 mg/kg [2, 8]: 77%; inhibition at 20 mg/kg [2, 10]: 50%; inhibition at 20 mg/kg [2, 11]: 5%; inhibition at 10 mg/kg [3, 32]: 5%; inhibition at 10 mg/kg [3, 33]: 1%; inhibition at 10 mg/kg [3, 34]: 0%; inhibition at 20 mg/kg [3, 32]: 7%; inhibition at 20 mg/kg [3, 33]: 3%; inhibition at 20 mg/kg [3, 34]: 0%; active doses relative to lethal 50 doses (mice): activities at doses much less than the lethal 50 doses |
| CNC[C@@H]1CN(c2ccc(OCc3cccc(Cl)c3)cc2)C(=O)O1 [(Ib), [R(+)] 5-N-methylaminomethyl 3-p-(meta-chlorobenzyloxy)phenyl oxazolidine-2-one] | 50 µM | – | – | – | – | – | – | – | – | – | – | – | – | – | 30 nM | 74% | 77% | 71% | 61% | 6% | specificity and reversibility [2]: much greater specificity and reversibility; level of activity [2]: level of activity similar to that of its racemic; inhibition at 5 mg/kg [2, 23]: 5%; inhibition at 5 mg/kg [2, 24]: 0%; inhibition at 5 mg/kg [3, 25]: -1%; inhibition at 5 mg/kg [3, 26]: 0%; inhibition at 5 mg/kg [3, 27]: 0%; inhibition at 5 mg/kg [3, 28]: 1%; inhibition at 5 mg/kg [3, 29]: -1%; inhibition at 5 mg/kg [3, 30]: -3%; inhibition at 5 mg/kg [3, 31]: 3%; LD50 ([4]; Table 2): > 1000 mg/kg; active doses relative to lethal 50 doses (mice): activities at doses much less than the lethal 50 doses |
